From publication PMC11503492, “Activity-Based DNA-Encoded Library Screening for Selective Inhibitors of Eukaryotic Translation” (ACS Central Science, 2024)

Key:
[1] = test system: RPL27[1:32]-GFP translation; assay: WG IVTT activity assay, RPL27[1:32]-GFP template; assay type: biochemical, wheat germ
Description: A commercially available wheat germ lysate (WG) IVTT system was employed to assay translation inhibition. Translation activity was detected via a GFP reporter, and the assay was miniaturized to picoliter-scale microfluidic droplets (Figure 1A,B). […] PCSK9 and RPL27 were truncated to the first 33 and 32 amino acids, respectively (PCSK9[1:33] and RPL27[1:32]). The sequences contain distinct PF846 stall sites and were both fused to a GFP reporter. The GFP reporter and a frameshift mutant of PCSK9[1:33] (PCSK9-FS[1:33]), which mutates the nascent chain sequence while maintaining a nearly identical mRNA sequence, were included as negative controls.[13] […] The WG IVTT assay was miniaturized using a previously described microfluidic circuit modified for longer incubation times (Figure S1)[27] using PF846 as a positive control compound, and assay statistical quality was calculated (Z′=0.7) (Figure 1E). […] Assay statistical quality using PC-HygB positive control beads was similarly calculated (Z′ = 0.75, Figure 1H). […]
429 of encoding region identifiers was then determined using a UMI aggregation algorithm; […]
433 manually determined threshold (10) were discarded. […]
(§1) 440 progress was immediately monitored (λex = 480 nm, λem = 530 nm, 27 °C, 2 h). […]
(§2) 441 tive activity was calculated using the slope of fluorescence increase over time (at 15–30 […]
Figure S11. […] Compound 8 (black) and PF846 (gray) were analyzed […]

[2] = test system: PCSK9 expression in HepG2 cells; assay: HepG2 cellular assay, PCSK9 Western blot; assay type: cell-based; conditions: 16 h treatment, 5 or 50 µM, triplicate, normalized to DMSO
Procedure: Reaction buffer (1 µL) and template (0.5 µL) were added and reaction progress was
Relative activity was cal-
450 culated using the slope of fluorescence increase over time (15–30 min post reaction initia-
Gene blocks were purchased from IDT
Digestion with Sgf I and PmeI allowed for
Sequence-verified plasmids
460 were cloned into DH5α E. coli for standard large-scale DNA plasmid preparation.
Gene blocks were purchased
Digestion with NdeI and XhoI
470 (4.5 g/L high-glucose DMEM, 2 mM L-glutamine, 10% fetal bovine serum, 1% penicillin-
Cells were lysed (100 µL RIPA buffer,
Protein lysates (24 µg) were separated by denaturing polyacrylamide
480 PCSK9 rabbit monoclonal antibody, 5% BSA in PBS-T). The PCSK9 probed membrane
HRP-labeled bands were visualized
Figure S12. […] PCSK9 expression in HepG2 cells
treated 16 h with PF846 or screening hit 8 (5 or 50 µM) or vehicle control (DMSO) was analyzed in triplicate
(also on this page, place not known: S12894 GAPDH pro m DMSO 5 μM DMSO μM 5 μM 50 μM PCSK9 PF846 hit8 50)
(1 picture or pasted object on this page, not shown here)

[3] = test system: PCSK9[1:33]-GFP N-terminal deletions; assay: WG IVTT end point assay of PCSK9[1:33]-GFP N-terminal deletions; assay type: biochemical, wheat germ; conditions: deletion of 15 or more N-terminal residues, 100 μM PF846
Procedure: (C) PF846 dose–response IVTT activity assays of PCSK9[1:33]-GFP, PCSK9-FS[1:33]-GFP, RPL27[1:32]-GFP, and the GFP reporters and (D) end point assays (100 μM PF846) of PCSK9[1:33]-GFP N-terminal deletions were conducted to determine sensitivity to PF846 in WG IVTT (% activity relative to DMSO control).

[4] = test system: MST1[1:39]-GFP translation; design: method as in PMID 28323820; conditions: cited from earlier work
[5] = test system: PCSK9[1:33]-GFP translation; assay: Wheat germ lysate (WG) IVTT microplate activity assay, PCSK9[1:33]-GFP template; assay type: biochemical; conditions: WG IVTT
Description: (§3) A commercially available wheat germ lysate (WG) IVTT system was employed to assay translation inhibition. Translation activity was detected via a GFP reporter, and the assay was miniaturized to picoliter-scale microfluidic droplets (Figure 1A,B). […] PCSK9 and RPL27 were truncated to the first 33 and 32 amino acids, respectively (PCSK9[1:33] and RPL27[1:32]). The sequences contain distinct PF846 stall sites and were both fused to a GFP reporter. The GFP reporter and a frameshift mutant of PCSK9[1:33] (PCSK9-FS[1:33]), which mutates the nascent chain sequence while maintaining a nearly identical mRNA sequence, were included as negative controls.[13] […] Sequence sensitivity was further confirmed by an N-terminal deletion series of PCSK9[1:33]-GFP; deletion of N-terminal residues increasingly ablated PCSK9[1:33]-GFP translation sensitivity to PF846 (Figure 1D). The WG IVTT assay was miniaturized using a previously described microfluidic circuit modified for longer incubation times (Figure S1)[27] using PF846 as a positive control compound, and assay statistical quality was calculated (Z′=0.7) (Figure 1E). To confirm detection of translation inhibition from library beads, hygromycin B, a nonselective aminoglycoside translation inhibitor, was coupled to beads displaying a photocleavable linker (PC-HygB). UV irradiation releases hygromycin from the bead, allowing it to interact with the WG IVTT assay in the droplet. PC-HygB bead photocleavage supernatant inhibited PCSK9[1:33]-GFP translation both in a microplate assay and in microfluidic droplets (Figure 1F,G, S2). Assay statistical quality using PC-HygB positive control beads was similarly calculated (Z′ = 0.75, Figure 1H). […]
(§4) 436 Microplate IVTT Assays
(§5) 437 Wheat germ lysate IVTT plate assays were prepared as 5 µL reactions. Wheat germ lysate
(§6) 438 (3 µL) was added to test compound or vehicle control (1 µL) in a 384-well black microplate
(§7) 439 and the reaction was incubated (10 min, RT). Template (1 µL) was added and reaction
(§8) 440 progress was immediately monitored (λex = 480 nm, λem = 530 nm, 27 °C, 2 h). Rela-
(§9) 441 tive activity was calculated using the slope of fluorescence increase over time (at 15–30
(§10) 442 min post reaction initiation) for compound samples relative to that of the DMSO vehicle
443 control. […]

[6] = test system: PCSK9-FS[1:33]-GFP translation; assay: WG IVTT microplate activity assay, PCSK9-FS[1:33]-GFP frameshift counter template; assay type: biochemical, wheat germ
Description: as §3, §4, §5, §6, §7, §8, §9, §10
443 control. All microplate experiments contained 25 ng/µL plasmid, except for assays with
445 respectively. HeLa lysate IVTT plate assays were prepared as 5.5 µL reactions. […]

GFP reporter translation = assay: WG IVTT activity assay, GFP reporter control; assay type: biochemical, wheat germ; conditions: negative control
Description: A commercially available wheat germ lysate (WG) IVTT system was employed to assay translation inhibition. Translation activity was detected via a GFP reporter, and the assay was miniaturized to picoliter-scale microfluidic droplets (Figure 1A,B). […] PCSK9 and RPL27 were truncated to the first 33 and 32 amino acids, respectively (PCSK9[1:33] and RPL27[1:32]). The sequences contain distinct PF846 stall sites and were both fused to a GFP reporter. The GFP reporter and a frameshift mutant of PCSK9[1:33] (PCSK9-FS[1:33]), which mutates the nascent chain sequence while maintaining a nearly identical mRNA sequence, were included as negative controls.[13] […] Sequence sensitivity was further confirmed by an N-terminal deletion series of PCSK9[1:33]-GFP; deletion of N-terminal residues increasingly ablated PCSK9[1:33]-GFP translation sensitivity to PF846 (Figure 1D). The WG IVTT assay was miniaturized using a previously described microfluidic circuit modified for longer incubation times (Figure S1)[27] using PF846 as a positive control compound, and assay statistical quality was calculated (Z′=0.7) (Figure 1E). […] Assay statistical quality using PC-HygB positive control beads was similarly calculated (Z′ = 0.75, Figure 1H). […]
as §1, §2

For `O=C(c1ccc(-n2nnc3cccnc32)cc1)N(c1ncccc1Cl)[C@@H]1CCCNC1` [PF846, PF-06446846, reference compound], which “activity on RPL27[1:32]-GFP translation (in words)” value [1] is on record?
Its value is “inhibited the translation”.

What about the “PCSK9 protein levels in HepG2 cells (in words)” value [2] of the same compound?
The value was “significantly reduced”.

What about the “PF846 activity on N-terminal deletions of PCSK9[1:33]-GFP (in words)” value [3] of the same compound?
The value was “completely eliminates PF846 activity”.

What about the “relative potency on MST1[1:39]-GFP versus PCSK9[1:33]-GFP and RPL27[1:32]-GFP translation (in words)” value [4] of the same compound?
The value was “more potently inhibits”.

And the “inhibition of PCSK9[1:33]-GFP translation (in words)” value [5]?
Its value is “inhibited the translation”.

And the IC50 ([5]; PCSK9[1:33]-GFP template, triplicate, ± standard deviation of the mean)?
The IC50 was 3.9 ± 0.8 µM.

And the IC50 ([6]; PCSK9-FS[1:33]-GFP template, triplicate, undetectable IC50 marked >300)?
Its IC50 is greater than 300 µM.

What about the “activity on PCSK9-FS[1:33]-GFP translation (in words)” value ([6]; frameshift control) of the same compound?
The value was “did not affect the translation”.

And the “activity on GFP reporter control translation (in words)” value (GFP reporter translation)?
The value was “did not affect the translation”.
